Test results from patent US9850283B2, “Macrocyclic inhibitors of the PD-1/PD-L1 and CD80(B7-1)/PD-L1 protein/protein interactions” (BRISTOL-MYERS SQUIBB COMPANY, priority 2013, dated 2017).
Read-outs that look alike come from different tables or passages of the source. Starred links: 1 amine or outer side, 2 acyl side, 3 side chain; linkers in the order of their positions; H or OH if unused. Positions of bridges follow the written chain, without caps; N, C: chain ends. Non-standard residues stand in square brackets, D forms with d. Residues, ends and D or L forms follow the SMILES beside them. ξ: configuration not given here. X2 = CCOc1ccc(-c2[nH]c3ccccc3c2C[C@H](N[*:1])C(=O)[*:2])cc1; Ala(4-thiazolyl) = N[C@@H](Cc1cscn1)C(=O)O; d(cisHyp) = O=C(O)[C@H]1C[C@@H](O)CN1; Bta = N[C@@H](Cc1csc2ccccc12)C(=O)O; Hyp = O=C(O)[C@@H]1C[C@@H](O)CN1; tBuAla = CC(C)(C)C[C@H](N)C(=O)O; NMehSer = CN[C@@H](CCO)C(=O)O; NMeNle = CCCC[C@H](NC)C(=O)O; NMeM = CN[C@@H](CCSC)C(=O)O; Pip = O=C(O)[C@@H]1CCCCN1; ξR = N=C(N)NCCCC(N)C(=O)O; NMeA = CN[C@@H](C)C(=O)O; Orn = NCCC[C@H](N)C(=O)O; Dab = NCC[C@H](N)C(=O)O; Dap = NC[C@H](N)C(=O)O; ξC = NC(CS)C(=O)O; Sar = CNCC(=O)O

Columns and labels:
[1] = molecular target: T1, Human PD-L1/PD-1 (Homo sapiens, UniProt Q9NZQ7); experiment: HTRF PD-1-Ig/PD-L1-His binding assay (human PD-L1)
T1 construct: made in house; host or cells: HEK293T
T1 sequence (Q9NZQ7 with tags, fused parts or gaps): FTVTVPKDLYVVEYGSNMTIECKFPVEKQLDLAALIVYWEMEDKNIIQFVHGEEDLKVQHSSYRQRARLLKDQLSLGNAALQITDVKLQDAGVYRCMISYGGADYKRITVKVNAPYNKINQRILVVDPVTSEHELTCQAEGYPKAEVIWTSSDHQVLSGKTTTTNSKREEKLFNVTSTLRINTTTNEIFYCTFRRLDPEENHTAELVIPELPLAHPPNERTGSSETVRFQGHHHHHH
How it was run: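 HTRF read-out: Eu cryptate anti-Ig mAb 1 nM final, APC anti-His mAb 20 nM final, added over the binding reaction. Proteins were PD-1-Ig and PD-L1-His ectodomain fusions. Buffer was dPBS, 0.1% BSA, 0.05% Tween-20.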

[2] = molecular target: T2, LK35.2-hPD-L1 cells / PE-labeled PD-1-Ig (Homo sapiens, UniProt Q9NZQ7); experiment: LK35.2-hPD-L1 cell binding high-content screening assay; type: cell-based
T2 construct: expressed in transfected cells; host or cells: LK35.2 mouse B cell line
T2 sequence (Q9NZQ7 19-290): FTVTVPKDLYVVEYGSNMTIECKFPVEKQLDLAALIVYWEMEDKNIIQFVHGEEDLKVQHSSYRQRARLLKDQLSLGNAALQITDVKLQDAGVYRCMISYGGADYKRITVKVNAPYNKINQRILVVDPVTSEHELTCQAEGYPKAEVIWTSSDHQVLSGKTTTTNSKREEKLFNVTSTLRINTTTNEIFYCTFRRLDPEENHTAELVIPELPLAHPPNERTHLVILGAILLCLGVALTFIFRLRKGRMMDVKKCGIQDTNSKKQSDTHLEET
How it was run: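 Compound effect on PD-1/PD-L1 binding is measured by imaging cell-associated phycoerythrin signal. Human PD-1-Ig (PE on Ig tag, 1 nM final) is applied with compound to a murine B cell line overexpressing human PD-L1 for 1 h at 37 °C in serum-containing RPMI.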

[3] = cluster symbol, read-out: HTRF IC50 cluster
[4] = cluster symbol, cell line of CBA not given (LK35.2-hPD-L1 or 293T-hPD-L1), read-out: CBA IC50 cluster
[5] = cell binding assay, cell line not given, cluster symbol, read-out: CBA IC50 cluster

Compound | IC50 [1, 3] [nM] | IC50 [2, 4] [nM] | IC50 [2, 5] [nM] | IC50 ([1]; read-out: HTRF IC50 value) [nM] | IC50 ([2]; cell line of CBA not given (LK35.2-hPD-L1 or 293T-hPD-L1), read-out: CBA IC50 value) [nM]
CCCC[C@H]1C(=O)N(C)[C@@H](CCCC)C(=O)N[C@@H](C)C(=O)N[C@H](C(=O)NCC(N)=O)CSCC(=O)N[C@@H](Cc2ccc(O)cc2)C(=O)N(C)[C@@H](C)C(=O)N[C@@H](CC(=O)O)C(=O)N2CCC[C@H]2C(=O)N[C@@H](Cc2cnc[nH]2)C(=O)N[C@@H](CCCN)C(=O)N2C[C@H](O)C[C@H]2C(=O)N[C@@H](Cc2c[nH]c3ccccc23)C(=O)N[C@@H](CO)C(=O)N[C@@H](Cc2c[nH]c3ccccc23)C(=O)N1C [Example 1140] ({CH2CO}-Y[NMeA]DPH[Orn][Hyp]WSW[NMeNle][NMeNle]ACG-NH2; thioether N-14) | 0.385 to 6.74 | 0.158 to 4.71 |  |  | 
CCCC[C@H]1C(=O)N[C@@H](CCCNC(=N)N)C(=O)N[C@H](C(=O)NCC(N)=O)CSCC(=O)N[C@@H](Cc2ccc(O)cc2)C(=O)N(C)[C@@H](C)C(=O)N[C@@H](CC(N)=O)C(=O)N2CCC[C@H]2C(=O)N[C@@H](Cc2cnc[nH]2)C(=O)N[C@@H](CC(C)C)C(=O)N2C[C@H](O)C[C@@H]2C(=O)N[C@@H](Cc2c[nH]c3ccccc23)C(=O)N[C@@H](CO)C(=O)N[C@@H](Cc2csc3ccccc23)C(=O)N(C)[C@@H](CCOC)C(=O)N1C [Example 9007] ({CH2CO}-Y[NMeA]NPHL[d(cisHyp)]WS[Bta][NMehSer](Me)[NMeNle]RCG-NH2; thioether N-14) | 0.385 to 6.74 |  | 0.158 to 4.71 |  | 
CCCC[C@H]1C(=O)N(C)[C@@H](CCCC)C(=O)N[C@@H](C)C(=O)N[C@H](C(=O)NCC(N)=O)CSCC(=O)N[C@@H](Cc2ccc(O)cc2)C(=O)N(C)[C@@H](C)C(=O)N[C@@H](CC(=O)O)C(=O)N2CCC[C@H]2C(=O)N[C@@H](Cc2cnc[nH]2)C(=O)N[C@@H](CCCNC(C)=O)C(=O)N2C[C@H](O)C[C@H]2C(=O)N[C@@H](Cc2c[nH]c3ccccc23)C(=O)N[C@@H](CO)C(=O)N[C@@H](Cc2c[nH]c3ccccc23)C(=O)N1C [Example 1156] ({CH2CO}-Y[NMeA]DPH[Orn](Ac)[Hyp]WSW[NMeNle][NMeNle]ACG-NH2; thioether N-14) | 0.385 to 6.74 | 0.158 to 4.71 |  |  | 
CCCC[C@H]1C(=O)N2CCC[C@@H]2C(=O)N[C@@H](CC(=O)O)C(=O)N[C@@H](C(C)C)C(=O)N(C)[C@@H](Cc2ccccc2)C(=O)N[C@@H](Cc2ccc(O)cc2)C(=O)N2CCC[C@@H]2C(=O)N[C@@H](Cc2c[nH]c3ccccc23)C(=O)N[C@@H](Cc2ccc(O)cc2)C(=O)N[C@@H](CC(C)C)C(=O)N[C@H](C(=O)NCC(N)=O)CSCC(=O)N[C@@H](Cc2ccccc2)C(=O)N(C)[C@@H](Cc2ccccc2)C(=O)N1C [Example 3574] (HELM PEPTIDE1{[O=C(C[*:3])[*:2]].F.[meF].[CCCC[C@@H](C(=O)[*:2])N(C)[*:1]].[dP].D.V.[meF].Y.[dP].W.Y.L.C.G.[am]}$PEPTIDE1,PEPTIDE1,1:R3-14:R3$$$V2.0) | 6.76 to 30.3 |  | 0.158 to 4.71 |  | 
CCCC[C@H]1C(=O)N(C)[C@@H](CCCC)C(=O)NC(CCCNC(=N)N)C(=O)N[C@H](C(=O)NCC(N)=O)CSCC(=O)N[C@@H](Cc2ccc(O)cc2)C(=O)N(C)[C@@H](C)C(=O)N[C@@H](CC(N)=O)C(=O)N2CCC[C@H]2C(=O)N[C@@H](CCN)C(=O)N[C@@H](CC(C)C)C(=O)N2C[C@H](O)C[C@H]2C(=O)N[C@@H](Cc2c[nH]c3ccccc23)C(=O)N[C@@H](CO)C(=O)N[C@@H](Cc2c(-c3ccc(OCC)cc3)[nH]c3ccccc23)C(=O)N1C (some centres unmarked) [Example 7010] ({CH2CO}-Y[NMeA]NP[Dab]L[Hyp]WS[X2][NMeNle][NMeNle][ξR]CG-NH2; thioether N-14) | 0.385 to 6.74 |  | 4.78 to 72.9 |  | 
CCCC[C@H]1C(=O)N(C)[C@@H](CCCC)C(=O)N[C@@H](CCCNC(=N)N)C(=O)N[C@H](C(=O)NCC(N)=O)CSCC(=O)N[C@@H](Cc2ccc(O)cc2)C(=O)N(C)[C@@H](C)C(=O)N[C@@H](CCN)C(=O)N2CCC[C@H]2C(=O)NCC(=O)N[C@@H](CCC(=O)O)C(=O)N2C[C@H](O)C[C@H]2C(=O)N[C@@H](Cc2c[nH]c3ccccc23)C(=O)N[C@@H](CO)C(=O)N[C@@H](Cc2c[nH]c3ccccc23)C(=O)N1C [Example 5129] ({CH2CO}-Y[NMeA][Dab]PGE[Hyp]WSW[NMeNle][NMeNle]RCG-NH2; thioether N-14) | 0.385 to 6.74 |  | 4.78 to 72.9 |  | 
CCCC[C@H]1C(=O)N(C)[C@@H](CCCC)C(=O)N[C@@H](CCC(=O)O)C(=O)N[C@H](C(=O)NCC(N)=O)CSCC(=O)N[C@@H](Cc2ccc(O)cc2)C(=O)N(C)[C@@H](C)C(=O)N[C@@H](CC(=O)O)C(=O)N2CCC[C@H]2C(=O)N[C@@H](Cc2c[nH]cn2)C(=O)N[C@@H](CCCN)C(=O)N2C[C@H](O)C[C@H]2C(=O)N[C@@H](Cc2c[nH]c3ccccc23)C(=O)N[C@@H](CCCCN)C(=O)N[C@@H](Cc2c[nH]c3ccccc23)C(=O)N1C [Example 5137] ({CH2CO}-Y[NMeA]DPH[Orn][Hyp]WKW[NMeNle][NMeNle]ECG-NH2; thioether N-14) | 0.385 to 6.74 |  | 0.158 to 4.71 |  | 
CCCC[C@H]1C(=O)N(C)[C@@H](CCCC)C(=O)N[C@@H](CCCNC(=N)N)C(=O)N[C@H](C(=O)NCC(N)=O)CSCC(=O)N[C@@H](Cc2ccccc2)C(=O)N(C)[C@@H](C)C(=O)N[C@@H](CC(N)=O)C(=O)N2CCC[C@H]2C(=O)N[C@@H](Cc2cnc[nH]2)C(=O)N[C@@H](CC(C)C)C(=O)N(C)CC(=O)N[C@@H](Cc2cscn2)C(=O)N[C@@H](CO)C(=O)N[C@@H](Cc2c[nH]c3ccccc23)C(=O)N1C [Example 1010] ({CH2CO}-F[NMeA]NPHL[Sar][Ala(4-thiazolyl)]SW[NMeNle][NMeNle]RCG-NH2; thioether N-14) |  |  |  | > 10000 | > 10000
CCCC[C@H]1C(=O)N(C)[C@@H](CCCC)C(=O)N[C@@H](CCCNC(=N)N)C(=O)NC(C(=O)NCC(N)=O)CSCC(=O)N[C@@H](Cc2ccc(O)cc2)C(=O)N(C)[C@@H](C)C(=O)N[C@@H](CC(N)=O)C(=O)N2CCC[C@H]2C(=O)N[C@@H](CO)C(=O)N[C@@H](CC(C)C)C(=O)N2CCC[C@H]2C(=O)N[C@@H](Cc2c[nH]c3ccccc23)C(=O)N[C@@H](CO)C(=O)N[C@@H](Cc2csc3ccccc23)C(=O)N1C (some centres unmarked) [Example 9072] ({CH2CO}-Y[NMeA]NPSLPWS[Bta][NMeNle][NMeNle]R[ξC]G-NH2; thioether N-14) | 0.385 to 6.74 |  | 0.158 to 4.71 |  | 
CCCC[C@H]1C(=O)N(C)[C@@H](CCCC)C(=O)N[C@@H](CC(C)C)C(=O)N[C@H](C(=O)NCC(N)=O)CSCC(=O)N[C@@H](Cc2ccc(O)cc2)C(=O)N(C)[C@@H](C)C(=O)N[C@@H](CC(N)=O)C(=O)N2CCC[C@H]2C(=O)N[C@@H](CN)C(=O)N[C@@H](CC(C)(C)C)C(=O)N2C[C@H](O)C[C@H]2C(=O)N[C@@H](Cc2c[nH]c3ccccc23)C(=O)N[C@@H](CO)C(=O)N[C@@H](Cc2c[nH]c3ccccc23)C(=O)N1C [Example 5083] ({CH2CO}-Y[NMeA]NP[Dap][tBuAla][Hyp]WSW[NMeNle][NMeNle]LCG-NH2; thioether N-14) | 0.385 to 6.74 |  | 0.158 to 4.71 |  | 
CCCC[C@H]1C(=O)N(C)[C@@H](CCSC)C(=O)N[C@@H](CCCNC(=N)N)C(=O)NC(C(=O)NCC(N)=O)CSCC(=O)N[C@@H](Cc2ccc(O)cc2)C(=O)N(C)[C@@H](C)C(=O)N[C@@H](CC(N)=O)C(=O)N2CCC[C@H]2C(=O)N[C@@H](Cc2cnc[nH]2)C(=O)N[C@@H](CO)C(=O)N2CCC[C@H]2C(=O)N[C@@H](Cc2c[nH]c3ccccc23)C(=O)N[C@@H](CO)C(=O)N[C@@H](Cc2csc3ccccc23)C(=O)N1C (some centres unmarked) [Example 9106] ({CH2CO}-Y[NMeA]NPHSPWS[Bta][NMeNle][NMeM]R[ξC]G-NH2; thioether N-14) | 0.385 to 6.74 |  | 4.78 to 72.9 |  | 
CCCC[C@H]1C(=O)N(C)[C@@H](CCCC)C(=O)N[C@@H](CCCN)C(=O)N[C@H](C(=O)NCC(N)=O)CSCC(=O)N[C@@H](Cc2ccc(O)cc2)C(=O)N2CCCC[C@H]2C(=O)N[C@@H](CC(N)=O)C(=O)N2CCC[C@H]2C(=O)N[C@@H](Cc2cnc[nH]2)C(=O)N[C@@H](CCC(=O)O)C(=O)N2C[C@H](O)C[C@H]2C(=O)N[C@@H](Cc2c[nH]c3ccccc23)C(=O)N[C@@H](CO)C(=O)N[C@@H](Cc2c[nH]c3ccccc23)C(=O)N1C [Example 1234] ({CH2CO}-Y[Pip]NPHE[Hyp]WSW[NMeNle][NMeNle][Orn]CG-NH2; thioether N-14) | 6.76 to 30.3 | 0.158 to 4.71 |  |  | 
CCCC[C@H]1C(=O)N(C)[C@@H](CCCC)C(=O)N[C@@H](CN)C(=O)N[C@H](C(=O)NCC(N)=O)CSCC(=O)N[C@@H](Cc2ccc(O)cc2)C(=O)N(C)[C@@H](C)C(=O)N[C@@H](CC(N)=O)C(=O)N2CCC[C@H]2C(=O)N[C@@H](CN)C(=O)N[C@@H](CC(C)C)C(=O)N2C[C@H](O)C[C@H]2C(=O)N[C@@H](Cc2c[nH]c3ccccc23)C(=O)N[C@@H](CCN)C(=O)N[C@@H](Cc2csc3ccccc23)C(=O)N1C [Example 1180] ({CH2CO}-Y[NMeA]NP[Dap]L[Hyp]W[Dab][Bta][NMeNle][NMeNle][Dap]CG-NH2; thioether N-14) | 0.385 to 6.74 | 0.158 to 4.71 |  |  | 
